The values that follow come from US6673566B1 (priority 2002, dated 2004).

Entries after “also recorded” stand apart in the source; their conditions may differ.

Test [1] concerns PBMC from Mycobacterium bovis-infected white-tailed deer. It is filed as cell-based.
Test [2] relates to white-tailed deer adherent peripheral blood mononuclear cells. The test is described as follows: Nitrite production (Griess reaction) by white-tailed deer monocyte-derived macrophages stimulated with M. haemolytica LPS. It is filed as cell-based. To be noted: cells stimulated with LPS in the presence of L-NMMA (1.15 mM). Here is the method:
Monocytes were isolated from buffy coat fractions of peripheral blood of non-infected deer by adherence in 25 cm^2 flasks at 37° C. for 1 hr. Cells were cultured for 2 wk at 37° C. with 5% CO2 in RPMI 1640 (Gibco, Invitrogen Life Technologies, Frederick, Md., USA) supplemented with L-glutamine, penicillin, streptomycin, 2-ME, 10% heat-inactivated fetal calf serum, and 10% heat-inactivated white-tailed deer serum. Medium was changed every 3-4 days during the culture period. […]
Nitrite is the stable oxidation product of NO and the amount of nitrite within culture supernatants is indicative of the amount of NO produced by cells in culture. Nitrite was measured using the Griess reaction (Rajaraman et al., 1998, Effect of vitamins A and E on nitric oxide production by blood mononuclear leukocytes from neonatal calves fed milk replacer, Journal of Dairy Science, 81:3,278-3,285) performed in 96-well microtiter plates (Immunolon 2, Dynatech Laboratories, Inc., Chantilly, Va., USA). […] Absorbencies of test and standard samples at 550 nm were measured using an automated ELISA plate reader (Molecular Devices, Menlo Park, Calif., USA). […]
Data were analyzed by one-way analysis of variance followed by Tukey-Kramer multiple comparisons test. […]
A general note: Griess reagent forms a coloured azo dye with nitrite.

On to `CNC(=N)NCCC[C@H](N)C(=O)O` [L-NMMA, N^G-monomethyl-L-arginine], for which the “Effect of L-NMMA on antigen-stimulated nitrite production” value in test [1] was “inhibited; also recorded: ablated this response; also recorded: abrogated”. In test [2], the “Nitrite levels versus non-stimulated cultures” value is reported as “did not differ”.
